# Earlier results in patent US20110092601A1, “LYSINE-SPECIFIC DEMETHYLASE INHIBITORS” (THE JOHNS HOPKINS UNIVERSITY, priority 2007, published 2011).
# System: P19 embryonal carcinoma cells
# Details: P19 embryonal carcinoma cells treated with tranylcypromine
smiles,measurement,value
"N[C@@H]1C[C@H]1c1ccccc1 [tranylcypromine, (1R,2S)-2-phenylcyclopropan-1-amine]",Effect on transcription of the Egr1 and Oct4 genes,transcriptional de-repression of the Egr1 and Oct4 genes
